# According to ChEMBL document CHEMBL1147335, “New leukotriene B4 receptor antagonist: leucettamine A and related imidazole alkaloids from the marine sponge Leucetta microraphis” (J Nat Prod, 1993):
# Experiments:
# [1] = molecular target: T1, Leukotriene B4 receptor 1 (Homo sapiens, UniProt Q15722); assay: Displacement of [3H]LTB4 from LTB4 receptor expressed in human U937 cell membrane; format: cell membranes, U-937
# [2] = molecular target: T1, Leukotriene B4 receptor 1; assay: Antagonist activity at LTB4 receptor in fura-2 loaded human U937 cells assessed as inhibition of LTB4-induced calcium mobilization; format: functional, cell-based, U-937
# [3] = molecular target: T1, Leukotriene B4 receptor 1; assay: Binding affinity to LTB4 receptor in human U937 cells by whole cell assay; format: cell-based, U-937
# T1 sequence (Q15722 whole entry): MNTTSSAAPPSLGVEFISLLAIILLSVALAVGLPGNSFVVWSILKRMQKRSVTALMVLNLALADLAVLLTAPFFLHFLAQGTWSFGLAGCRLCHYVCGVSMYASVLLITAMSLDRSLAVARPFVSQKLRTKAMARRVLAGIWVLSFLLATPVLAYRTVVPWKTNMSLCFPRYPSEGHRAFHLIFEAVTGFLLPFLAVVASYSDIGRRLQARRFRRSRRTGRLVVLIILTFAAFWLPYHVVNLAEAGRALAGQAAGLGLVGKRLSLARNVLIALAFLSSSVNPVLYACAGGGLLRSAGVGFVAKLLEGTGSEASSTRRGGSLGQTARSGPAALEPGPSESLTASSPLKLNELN
SMILES,IC50 [1],Ki [1],IC50 [2],IC50 [3]
CN1C(=N)N(C)/C(=N/c2nc(Cc3ccc4c(c3)OCO4)c(Cc3ccc4c(c3)OCO4)n2C)C1=O [LEUCETTAMIDINE],15.6 µM,5.3 µM,,
Cn1c(N)nc(Cc2ccc3c(c2)OCO3)c1Cc1ccc2c(c1)OCO2 [LEUCETTAMINE A],4 µM,1.3 µM,4.6 µM,750 nM
CN1C(=O)/C(=C/c2ccc3c(c2)OCO3)N=C1N [LEUCETTAMINE B],,100 µM,,
